According to PubChem BioAssay AID2060503 (Molecular Pharmacology Branch, DTP, NCI, 2025):

Test system: 817829-284-R-J1-PDC complex spheroids, viability
Assay: Anticancer human tumor 817829-284-R-J1-PDC patient-derived colon adenocarcinoma cell line growth inhibition [GQUAD]
Settings: for IC50: curve of first compound; for viability, T/C: stronger effect = lower value
In short: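 Tumor cells were grown as complex spheroids with HUVEC endothelial cells and mesenchymal stem cells as stroma. G-quadruplex stabilizers were combined with targeted agents over half-log dilutions from near the clinical Cmax, or from 10 microM.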

[1] = second compound 0.0316 µM, first compound 0.0316 µM
[2] = second compound 0.0316 µM, first compound 0.1 µM
[3] = second compound 0.0316 µM, first compound 0.316 µM
[4] = second compound 0.0316 µM, first compound 1 µM
[5] = second compound 0.0316 µM, first compound 3.16 µM
[6] = second compound 0.0316 µM, first compound 10 µM
[7] = second compound 0.1 µM, first compound 0.0316 µM
[8] = second compound 0.1 µM, first compound 0.1 µM
[9] = second compound 0.1 µM, first compound 0.316 µM
[10] = second compound 0.1 µM, first compound 1 µM
[11] = second compound 0.1 µM, first compound 3.16 µM
[12] = second compound 0.1 µM, first compound 10 µM
[13] = second compound 0.316 µM, first compound 0.0316 µM
[14] = second compound 0.316 µM, first compound 0.1 µM
[15] = second compound 0.316 µM, first compound 0.316 µM
[16] = second compound 0.316 µM, first compound 1 µM
[17] = second compound 0.316 µM, first compound 3.16 µM
[18] = second compound 0.316 µM, first compound 10 µM
[19] = second compound 1 µM, first compound 0.0316 µM
[20] = second compound 1 µM, first compound 0.1 µM
[21] = second compound 1 µM, first compound 0.316 µM
[22] = second compound 1 µM, first compound 1 µM
[23] = second compound 1 µM, first compound 3.16 µM
[24] = second compound 1 µM, first compound 10 µM
[25] = second compound 3.16 µM, first compound 0.0316 µM
[26] = second compound 3.16 µM, first compound 0.1 µM
[27] = second compound 3.16 µM, first compound 0.316 µM
[28] = second compound 3.16 µM, first compound 1 µM
[29] = second compound 3.16 µM, first compound 3.16 µM
[30] = second compound 3.16 µM, first compound 10 µM
[31] = second compound 10 µM, first compound 0.0316 µM
[32] = second compound 10 µM, first compound 0.1 µM
[33] = second compound 10 µM, first compound 0.316 µM
[34] = second compound 10 µM, first compound 1 µM
[35] = second compound 10 µM, first compound 3.16 µM
[36] = second compound 10 µM, first compound 10 µM
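Note: spheroids exposed to agents for 7 days before readout.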
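Throughout, for viability, T/C: percent viability relative to DMSO vehicle control taken as 100%.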

**Q.** Which results are given for C#Cc1c(F)ccc2cc(O)cc(-c3ncc4c(N5CC6CCC(C5)N6)nc(OCC56CCCN5CC(F)C6)nc4c3F)c12 (stereo unspecified) + CN(C)c1ccc(Nc2c3ccc(NC(=O)CCN4CCCC4)cc3nc3cc(NC(=O)CCN4CCCC4)ccc23)cc1?
**A.** IC50 (second compound 0.0316 µM): > 10000 nM; IC50 (second compound 0.1 µM): > 10000 nM; IC50 (second compound 0.316 µM): > 10000 nM; IC50 (second compound 1 µM): > 10000 nM; IC50 (second compound 3.16 µM): > 10000 nM; IC50 (second compound 10 µM): 4690 nM; viability, T/C [1]: 120%; viability, T/C [2]: 98.2%; viability, T/C [3]: 96%; viability, T/C [4]: 98.1%; viability, T/C [5]: 117%; viability, T/C [6]: 121%; viability, T/C [7]: 95.5%; viability, T/C [8]: 106%; viability, T/C [9]: 95.8%; viability, T/C [10]: 98.4%; viability, T/C [11]: 114%; viability, T/C [12]: 116%; viability, T/C [13]: 111%; viability, T/C [14]: 105%; viability, T/C [15]: 97.9%; viability, T/C [16]: 106%; viability, T/C [17]: 101%; viability, T/C [18]: 118%; viability, T/C [19]: 96.1%; viability, T/C [20]: 97%; viability, T/C [21]: 113%; viability, T/C [22]: 97.8%; viability, T/C [23]: 105%; viability, T/C [24]: 105%; viability, T/C [25]: 107%; viability, T/C [26]: 112%; viability, T/C [27]: 102%; viability, T/C [28]: 110%; viability, T/C [29]: 117%; viability, T/C [30]: 101%; viability, T/C [31]: 107%; viability, T/C [32]: 116%; viability, T/C [33]: 87.4%; viability, T/C [34]: 94%; viability, T/C [35]: 61.5%; viability, T/C [36]: 24.5%

**Q.** How did the IC50 (second compound 0.0316 µM) turn out when CC[C@@]1(O)C(=O)OCc2c1cc1n(c2=O)Cc2cc3c(CN(C)C)c(O)ccc3nc2-1 + CN(C)c1ccc(Nc2c3ccc(NC(=O)CCN4CCCC4)cc3nc3cc(NC(=O)CCN4CCCC4)ccc23)cc1 was run?
**A.** 67.8 nM

**Q.** And the IC50 (second compound 0.1 µM)?
**A.** 59 nM

**Q.** What about the IC50 (second compound 0.316 µM) of the same molecule?
**A.** 67.9 nM

**Q.** What about the IC50 (second compound 1 µM) of the same molecule?
**A.** 63.7 nM

**Q.** What about the IC50 (second compound 3.16 µM) of the same molecule?
**A.** 68.3 nM

**Q.** And the IC50 (second compound 10 µM)?
**A.** 75.7 nM

**Q.** What about the viability, T/C (second compound 0.0316 µM, first compound 0.000999 µM) of the same molecule?
**A.** 80.2%

**Q.** What about the viability, T/C (second compound 0.0316 µM, first compound 0.00316 µM) of the same molecule?
**A.** 104%

**Q.** What about the viability, T/C (second compound 0.0316 µM, first compound 0.00999 µM) of the same molecule?
**A.** 94.8%

**Q.** And the viability, T/C [1]?
**A.** 65.9%

**Q.** What about the viability, T/C (second compound 0.0316 µM, first compound 0.0999 µM) of the same molecule?
**A.** 45.4%

**Q.** What about the viability, T/C [3] of the same molecule?
**A.** 35.5%

**Q.** And the viability, T/C (second compound 0.1 µM, first compound 0.000999 µM)?
**A.** 97.1%

**Q.** What about the viability, T/C (second compound 0.1 µM, first compound 0.00316 µM) of the same molecule?
**A.** 122%

**Q.** And the viability, T/C (second compound 0.1 µM, first compound 0.00999 µM)?
**A.** 108%

**Q.** And the viability, T/C [7]?
**A.** 59.8%

**Q.** What about the viability, T/C (second compound 0.1 µM, first compound 0.0999 µM) of the same molecule?
**A.** 44.5%

**Q.** And the viability, T/C [9]?
**A.** 38.5%

**Q.** And the viability, T/C (second compound 0.316 µM, first compound 0.000999 µM)?
**A.** 89.7%

**Q.** And the viability, T/C (second compound 0.316 µM, first compound 0.00316 µM)?
**A.** 123%

**Q.** And the viability, T/C (second compound 0.316 µM, first compound 0.00999 µM)?
**A.** 107%

**Q.** What about the viability, T/C [13] of the same molecule?
**A.** 66.7%

**Q.** And the viability, T/C (second compound 0.316 µM, first compound 0.0999 µM)?
**A.** 46.4%

**Q.** What about the viability, T/C [15] of the same molecule?
**A.** 35.6%

**Q.** What about the viability, T/C (second compound 1 µM, first compound 0.000999 µM) of the same molecule?
**A.** 111%

**Q.** What about the viability, T/C (second compound 1 µM, first compound 0.00316 µM) of the same molecule?
**A.** 108%

**Q.** And the viability, T/C (second compound 1 µM, first compound 0.00999 µM)?
**A.** 105%

**Q.** And the viability, T/C [19]?
**A.** 62.9%

**Q.** What about the viability, T/C (second compound 1 µM, first compound 0.0999 µM) of the same molecule?
**A.** 45.9%

**Q.** And the viability, T/C [21]?
**A.** 34%

**Q.** What about the viability, T/C (second compound 3.16 µM, first compound 0.000999 µM) of the same molecule?
**A.** 114%

**Q.** And the viability, T/C (second compound 3.16 µM, first compound 0.00316 µM)?
**A.** 99.9%

**Q.** And the viability, T/C (second compound 3.16 µM, first compound 0.00999 µM)?
**A.** 101%

**Q.** And the viability, T/C [25]?
**A.** 67.7%

**Q.** What about the viability, T/C (second compound 3.16 µM, first compound 0.0999 µM) of the same molecule?
**A.** 41.5%

**Q.** What about the viability, T/C [27] of the same molecule?
**A.** 32.4%

**Q.** What about the viability, T/C (second compound 10 µM, first compound 0.000999 µM) of the same molecule?
**A.** 102%

**Q.** And the viability, T/C (second compound 10 µM, first compound 0.00316 µM)?
**A.** 101%

**Q.** What about the viability, T/C (second compound 10 µM, first compound 0.00999 µM) of the same molecule?
**A.** 84%

**Q.** And the viability, T/C [31]?
**A.** 65.8%

**Q.** And the viability, T/C (second compound 10 µM, first compound 0.0999 µM)?
**A.** 45.6%

**Q.** What about the viability, T/C [33] of the same molecule?
**A.** 30.3%

**Q.** How did the IC50 (second compound 0.0316 µM) turn out when COc1cc(C2c3cc4c(cc3C(OC3OC5COC(C)OC5C(O)C3O)C3COC(=O)C23)OCO4)cc(OC)c1O (stereo unspecified) + CN(C)c1ccc(Nc2c3ccc(NC(=O)CCN4CCCC4)cc3nc3cc(NC(=O)CCN4CCCC4)ccc23)cc1 was run?
**A.** 378 nM

**Q.** And the IC50 (second compound 0.1 µM)?
**A.** 434 nM

**Q.** And the IC50 (second compound 0.316 µM)?
**A.** 375 nM

**Q.** What about the IC50 (second compound 1 µM) of the same molecule?
**A.** 229 nM

**Q.** And the IC50 (second compound 3.16 µM)?
**A.** 227 nM

**Q.** What about the IC50 (second compound 10 µM) of the same molecule?
**A.** 295 nM

**Q.** And the viability, T/C [1]?
**A.** 103%

**Q.** And the viability, T/C [2]?
**A.** 85.7%

**Q.** And the viability, T/C [3]?
**A.** 35%

**Q.** And the viability, T/C [4]?
**A.** 42.8%

**Q.** And the viability, T/C [5]?
**A.** 32.1%

**Q.** What about the viability, T/C [6] of the same molecule?
**A.** 10.2%

**Q.** And the viability, T/C [7]?
**A.** 97.5%

**Q.** And the viability, T/C [8]?
**A.** 88.6%

**Q.** What about the viability, T/C [9] of the same molecule?
**A.** 34.5%

**Q.** And the viability, T/C [10]?
**A.** 44.9%

**Q.** What about the viability, T/C [11] of the same molecule?
**A.** 33.9%

**Q.** What about the viability, T/C [12] of the same molecule?
**A.** 11%

**Q.** What about the viability, T/C [13] of the same molecule?
**A.** 92.7%

**Q.** And the viability, T/C [14]?
**A.** 81.6%

**Q.** What about the viability, T/C [15] of the same molecule?
**A.** 37.7%

**Q.** And the viability, T/C [16]?
**A.** 40.4%

**Q.** And the viability, T/C [17]?
**A.** 33.3%

**Q.** And the viability, T/C [18]?
**A.** 11.8%

**Q.** And the viability, T/C [19]?
**A.** 101%

**Q.** What about the viability, T/C [20] of the same molecule?
**A.** 92.1%

**Q.** And the viability, T/C [21]?
**A.** 33.1%

**Q.** And the viability, T/C [22]?
**A.** 40.7%

**Q.** What about the viability, T/C [23] of the same molecule?
**A.** 32%

**Q.** And the viability, T/C [24]?
**A.** 9.94%

**Q.** And the viability, T/C [25]?
**A.** 95.4%

**Q.** What about the viability, T/C [26] of the same molecule?
**A.** 87.9%

**Q.** And the viability, T/C [27]?
**A.** 34.3%

**Q.** And the viability, T/C [28]?
**A.** 37%

**Q.** What about the viability, T/C [29] of the same molecule?
**A.** 30.7%

**Q.** And the viability, T/C [30]?
**A.** 10.4%

**Q.** And the viability, T/C [31]?
**A.** 86.9%

**Q.** And the viability, T/C [32]?
**A.** 68.2%

**Q.** What about the viability, T/C [33] of the same molecule?
**A.** 37.1%

**Q.** And the viability, T/C [34]?
**A.** 41.5%

**Q.** And the viability, T/C [35]?
**A.** 27.3%

**Q.** What about the viability, T/C [36] of the same molecule?
**A.** 10%
